The supplement of paper PMC10307832

Assays:
Assay in all cases: relative viability (nuclei count vs DMSO), 5 days (fraction); higher = more cells survive
[1] = compound: C1COCCN1C2=NC(=NC3=C2OC4=C3C=CC=N4)C5=CC(=CC=C5)NC(=O)C6=CN=C(C=C6)N + CS(=O)(=O)CCNCc1ccc(-c2ccc3ncnc(Nc4ccc(OCc5cccc(F)c5)c(Cl)c4)c3c2)o1 [Lapatinib] (partner 2 µM)
Method in brief: (§1)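 One day after seeding in 1536-well plates, lung cancer cell lines were dosed by pin tool. Dosing was either single-drug or a fixed anchor-drug dose plus five library-drug doses (not always all listed) in √10 steps. After 5 days, nuclei were stained in one fix-and-stain step and counted on 4× images, and relative viability is the nuclei count of treated wells over that of vehicle wells, given as the median of duplicate plates.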

SGI-1776 + Olaparib = compound: CN1CCC(CNc2ccc3ncc(-c4cccc(OC(F)(F)F)c4)n3n2)CC1 [SGI-1776] + O=C(c1cc(Cc2n[nH]c(=O)c3ccccc23)ccc1F)N1CCN(C(=O)C2CC2)CC1 [Olaparib] (partner 8 µM)
Method in brief: as §1

Entinostat + Luminespib = compound: Nc1ccccc1NC(=O)c1ccc(CNC(=O)OCc2cccnc2)cc1 [Entinostat] + CCNC(=O)c1noc(-c2cc(C(C)C)c(O)cc2O)c1-c1ccc(CN2CCOCC2)cc1 [Luminespib] (partner 0.01 µM)
Method in brief: as §1

Entinostat + Dasatinib = compound: Nc1ccccc1NC(=O)c1ccc(CNC(=O)OCc2cccnc2)cc1 [Entinostat] + Cc1nc(Nc2ncc(C(=O)Nc3c(C)cccc3Cl)s2)cc(N2CCN(CCO)CC2)n1 [Dasatinib] (partner 0.075 µM)
Method in brief: as §1

UMC-11 was tested, and the relative viability ([1]; first compound 0.02 µM) was 0.927, the relative viability ([1]; first compound 0.06325 µM) was 1.09 and the relative viability ([1]; first compound 0.2 µM) was 0.918. For the same cell line, the relative viability ([1]; first compound 0.6325 µM) was 1.06, the relative viability ([1]; first compound 2 µM) was 0.822 and the relative viability (SGI-1776 + Olaparib; first compound 0.08 µM) was 0.337. It also gave a relative viability (SGI-1776 + Olaparib; first compound 0.8 µM) of 0.433, a relative viability (SGI-1776 + Olaparib; first compound 2.53 µM) of 0.289 and a relative viability (SGI-1776 + Olaparib; first compound 8 µM) of 0.206. For the same cell line, the relative viability (Entinostat + Luminespib; first compound 0.02 µM) was 1.06, the relative viability (Entinostat + Luminespib; first compound 0.06325 µM) was 1.14 and the relative viability (Entinostat + Luminespib; first compound 0.2 µM) was 0.937. For the same cell line, the relative viability (Entinostat + Luminespib; first compound 0.6325 µM) was 0.261, the relative viability (Entinostat + Luminespib; first compound 2 µM) was 0.221 and the relative viability (Entinostat + Dasatinib; first compound 0.02 µM) was 0.468. The relative viability (Entinostat + Dasatinib; first compound 0.06325 µM) was 0.478, the relative viability (Entinostat + Dasatinib; first compound 0.2 µM) was 0.399 and the relative viability (Entinostat + Dasatinib; first compound 0.6325 µM) was 0.193. For the same cell line, the relative viability (Entinostat + Dasatinib; first compound 2 µM) was 0.17.
